In patent US20030194738A1, “Antisense oligonucleotide compositions and methods for the modulation of activating protein 1” (priority 1997, published 2003):
Strand notation (5' to 3'): a small letter for the sugar, then the base; units joined by * are phosphorothioate-linked, units joined directly phosphodiester-linked; [ ] holds rarer units or linkages, { } end groups; capitals alone tell only the bases. d = 2'-deoxy (DNA)

Assays:
c-jun mRNA = c-jun mRNA expression in TPA-induced A549 cells, Northern blotting; assay type: cell-based, human; conditions: for c-jun mRNA % CONTROL: 400 nM oligonucleotide with LIPOFECTIN, control is TPA induction, at 1 hour, in A549 cells; for inhibition of c-jun mRNA expression: 400 nM oligonucleotide, TPA-induced A549 cells; for c-jun (mRNA level, specificity experiment): Table 5, TPA - no oligo = 100, basal = 23, A549 cells
Description: In order to evaluate the activity of potential c-fos and c-jun modulating oligonucleotides, A549 cells were grown in T-75 flasks until 80-90% confluent. (Cell line A549 is available from, inter alia, the American Type Culture Collection, Rockville, Md., as ATCC No. CCL-185.) At this time, the cells were washed twice with 10 mL of media (DMEM), followed by the addition of 5 mL of DMEM containing 20 μg/mL of LIPOFECTIN™ (i.e., DOTMA/DOPE (N-[1-(2,3-dioleyloxy)propyl]-N,N,N-[…] chloride/dioleoylphosphatidyl ethanolamine)). […] After 4 hours at 37° C., the medium was replaced with DMEM containing 10% serum. At this point, 1 μM 12-O-tetradecanoylphorbol 13-acetate (TPA) was added to induce expression of c-fos and c-jun. Cells were extracted in guanidinium one hour later, and the c-fos and c-jun mRNA expression was determined by Northern blotting. Probes for human c-jun and c-fos were PCR products prepared using primers based on the published sequences thereof (respectively, Hattori et al., Proc. Natl. Acad. Sci. U.S.A., 1988, 85:9148, and Van Straaten et al., Proc. Natl. Acad. Sci. U.S.A., 1983, 80:3183).

c-fos mRNA = c-fos mRNA expression in TPA-induced A549 cells, Northern blotting; assay type: cell-based, human; conditions: for effect on c-fos mRNA levels during TPA induction (in words) / c-fos (mRNA level, specificity experiment) / c-fos (expression, modified oligonucleotides): A549 cells; for c-fos (mRNA level, specificity experiment): Table 5, TPA - no oligo = 100, basal = 5; for c-fos (expression, modified oligonucleotides): Table 10, TPA - no oligo = 100, basal = 3; for c-fos mRNA % CONTROL: 400 nM oligonucleotide with LIPOFECTIN, control is TPA induction, at 1 hour, in A549 cells
Description: In order to evaluate the activity of potential c-fos and c-jun modulating oligonucleotides, A549 cells were grown in T-75 flasks until 80-90% confluent. (Cell line A549 is available from, inter alia, the American Type Culture Collection, Rockville, Md., as ATCC No. CCL-185.) At this time, the cells were washed twice with 10 mL of media (DMEM), followed by the addition of 5 mL of DMEM containing 20 μg/mL of LIPOFECTIN™ (i.e., DOTMA/DOPE (N-[1-(2,3-dioleyloxy)propyl]-N,N,N-[…] chloride/dioleoylphosphatidyl ethanolamine)). The oligonucleotides were added from a 10 μM stock solution to a final concentration of 400 nM, and the two solutions were mixed by swirling the flasks. After 4 hours at 37° C., the medium was replaced with DMEM containing 10% serum. At this point, 1 μM 12-O-tetradecanoylphorbol 13-acetate (TPA) was added to induce expression of c-fos and c-jun. Cells were extracted in guanidinium one hour later, and the c-fos and c-jun mRNA expression was determined by Northern blotting. Probes for human c-jun and c-fos were PCR products prepared using primers based on the published sequences thereof (respectively, Hattori et al., Proc. Natl. Acad. Sci. U.S.A., 1988, 85:9148, and Van Straaten et al., Proc. Natl. Acad. Sci. U.S.A., 1983, 80:3183).
Finally, it can also be seen from Table 5 that neither active oligonucleotide has any detectable effect on mRNA levels of the other active oligonucleotide's target.
Once oligonucleotides that modulate c-Fos or c-Jun are identified, derivative or modified oligonucleotides having the same sequence thereas are prepared. In order to evaluate the effect of chemical modifications to oligonucleotides to c-fos and c-jun, the modified oligonucleotides described in Tables 8 and 9 were prepared. The effect of the c-fos-targeted oligonucleotides on c-fos RNA levels were evaluated as described in Examples 2-3. […] Other modified oligonucleotides of the invention are evaluated in like fashion. In order to evaluate the effect of PNA antisense analogs, the PNA analogs of the invention are introduced into appropriate cell lines by microinjection according to the method of Hanvey et al. (Science, 1992, 258:1481). Intracellular delivery of PNA analogs is confirmed by the use of a fluorescently tagged PNA antisense analog conjugate such as, e.g., ISIS 14240.

c-Fos protein = c-Fos protein levels in TPA-induced A549 cells, immunoblot; assay type: cell-based, human; conditions: Table 7; TPA (1 uM) for three hours; TPA - no oligo = 100, basal = 21
Description: The ability of the c-fos active oligonucleotide ISIS 10639 to reduce expression of the c-Fos protein was examined as follows. A549 cells were treated with oligonucleotides as in Examples 2-3, except that induction of c-Fos was effected by treatment of cells with TPA (1 uM) for three hours. At this time, whole cell protein was extracted in SDS (sodium dodecyl sulfate) buffer. Samples of extracts were electrophoresed, transferred to nitrocellulose filters which were immunoblotted using a c-Fos-specific antibody (Santa Cruz AB, Santa Cruz, Calif.).

MMP-9 = MMP-9 expression in TPA-induced normal human epidermal keratinocytes; assay type: cell-based; conditions: Table 17; NHEK cells harvested 24 hours after TPA treatment for 4 hours; TPA - no oligo = 100, basal = 4
Excerpt: The matrix metalloproteinases (MMPs) are a family of enzymes which have the ability to degrade components of the extracellular matrix (Birkedal-Hansen, Current Op. Biol., 1995, 7, 728). […] In particular, one member of this family, matrix metalloproteinase-9 (MMP-9), is often found to be expressed only in tumors and other diseased tissues (Himeistein et al., Invasion & Metastasis, 1994, 14, 246). Several studies have shown that regulation of the MMP-9 gene may be controlled by the AP-1 transcription factor (Kerr et al., Science, 1988, 242, 1242; Kerr et al., Cell, 1990, 61, 267; Gum et al., J. Biol. Chem., 1996, 271, 10672; Hua et al., Cancer Res., 1996, 56, 5279). In order to determine whether MMP-9 expression can be influenced by AP-1 modulation, the following experiments were conducted on normal human epidermal keratinocytes (NHEKs). Although NHEKs normally express no detectable MMP-9, MMP-9 can be induced by a number of stimuli, including TPA. ISIS 10582, an oligonucleotide targeted to c-jun, was evaluated for its ability to modulate MMP-9 expression according to the protocols described in Examples 2-3 with the following exceptions: (1) NHEK cells were used instead of A549 cells, (2) the probe used, a PCR product prepared using the published sequence of the MMP-9 gene (Huhtala et al., J. Biol. Chem., 1991, 266:16485; Sato et al., Oncogene, 1993, 8:395), is specific for MMP-9 rather than c-jun, and (3) the cells were harvested 24 hours after TPA treatment for 4 hours.

TGC-CCC-TCA-GCC-CCC-GAC-GG (dT*dG*dC*dC*dC*dC*dT*dC*dA*dG*dC*dC*dC*dC*dC*dG*dA*dC*dG*dG; antisense) [ISIS 10583]
c-jun mRNA % CONTROL (c-jun mRNA): 20 % CONTROL
inhibition of c-jun mRNA expression (c-jun mRNA): 80%

ATG-TGC-TAG-ATG-CGC-AAA-GT (ATGTGCTAGATGCGCAAAGT; antisense; DNA, all phosphorothioate, methylation of C not given here) [ISIS 11185]
effect on c-fos mRNA levels during TPA induction (in words) (c-fos mRNA): no detectable effect
c-fos (mRNA level, specificity experiment) (c-fos mRNA): 93
c-jun (mRNA level, specificity experiment) (c-jun mRNA): 98
c-Fos (protein level) (c-Fos protein): 91

GCT-GCG-CCG-CCG-ACG-TGA-CG (dG*dC*dT*dG*dC*dG*dC*dC*dG*dC*dC*dG*dA*dC*dG*dT*dG*dA*dC*dG; antisense) [ISIS 10578]
c-jun mRNA % CONTROL (c-jun mRNA): 37 % CONTROL

CCC-CCG-ACC-GTC-TCT-CTT-CA (dC*dC*dC*dC*dC*dG*dA*dC*dC*dG*dT*dC*dT*dC*dT*dC*dT*dT*dC*dA; antisense) [ISIS 10581]
c-jun mRNA % CONTROL (c-jun mRNA): 24 % CONTROL
inhibition of c-jun mRNA expression (c-jun mRNA): 76%

CGC-ACC-TCC-ACT-CCC-GCC-TC (dC*dG*dC*dA*dC*dC*dT*dC*dC*dA*dC*dT*dC*dC*dC*dG*dC*dC*dT*dC; antisense) [ISIS 10571]
c-jun mRNA % CONTROL (c-jun mRNA): 100 % CONTROL

ACG-TCC-GAT-TCC-GAG-CGC-AA (ACGTCCGATTCCGAGCGCAA; antisense; DNA, all phosphorothioate, methylation of C not given here) [ISIS 11186]
effect on c-fos mRNA levels during TPA induction (in words) (c-fos mRNA): no detectable effect
c-fos (mRNA level, specificity experiment) (c-fos mRNA): 98
c-jun (mRNA level, specificity experiment) (c-jun mRNA): 99
c-Fos (protein level) (c-Fos protein): 99

GAG-AGA-CCG-TCG-GGC-GCT-GA (GAGAGACCGTCGGGGGCTGA; listed as DNA, chemistry not given here) [ISIS 11562]
c-fos (mRNA level, specificity experiment) (c-fos mRNA): 89
MMP-9 (expression) (MMP-9): 99

ACC-AGC-CCG-GGA-GCC-ACA-GG (dA*dC*dC*dA*dG*dC*dC*dC*dG*dG*dG*dA*dG*dC*dC*dA*dC*dA*dG*dG; antisense) [ISIS 10572]
c-jun mRNA % CONTROL (c-jun mRNA): 39 % CONTROL

GCC-ACA-CTC-AGT-GCA-ACT-CT (dG*dC*dC*dA*dC*dA*dC*dT*dC*dA*dG*dT*dG*dC*dA*dA*dC*dT*dC*dT; antisense) [ISIS 10570]
c-jun mRNA % CONTROL (c-jun mRNA): 62 % CONTROL

A^SA^SG^ST^SC^SC^ST^ST^SG^SA^SG^SG^SC^SC^SC^SA^SC^SA^SG^SC (antisense AAGTCCTTGAGGCCCACAGC; all phosphorothioate, sugars by position and methylation of C not given here) [ISIS 11538]
c-fos (expression, modified oligonucleotides) (c-fos mRNA): 15

CCT-GCC-TCG-GCC-TCC-CAA-AG (CCTGCCTCGGCCTCCCAAAG; antisense; DNA, all phosphorothioate, methylation of C not given here) [ISIS 10643]
c-fos mRNA % CONTROL (c-fos mRNA): 39 % CONTROL

CGC-CCC-GCC-GCC-GCT-GCT-CA (dC*dG*dC*dC*dC*dC*dG*dC*dC*dG*dC*dC*dG*dC*dT*dG*dC*dT*dC*dA; antisense) [ISIS 10579]
c-jun mRNA % CONTROL (c-jun mRNA): 41 % CONTROL

A^SA^SG^ST^SC^SC^ST^ST^SG^SA^SG^SG^SC^SC^SChu SA^SC^SA^SG^SC (AAGTCCTTGAGGCCCACAGC; all phosphorothioate, sugars by position and methylation of C not given here; further chemistry not fully specified) [ISIS 11200]
effect on c-fos mRNA levels during TPA induction (in words) (c-fos mRNA): some enhancement of c-fos modulation
c-fos (expression, modified oligonucleotides) (c-fos mRNA): 5

GAG-AAC-ATC-ATC-GTG-GCG-GT (GAGAACATCATCGTGGCGGT; antisense; all phosphorothioate, sugars by position and methylation of C not given here) [ISIS 10631]
c-fos mRNA % CONTROL (c-fos mRNA): 118 % CONTROL

CAT-CGT-GGC-GGT-TAG-GCA-AA (CATCGTGGCGGTTAGGCAAA; antisense; all phosphorothioate, sugars by position and methylation of C not given here) [ISIS 10630]
c-fos mRNA % CONTROL (c-fos mRNA): 91 % CONTROL

TGG-TGC-CTG-CGT-GAT-ACT-CG (TGGTGCCTGCGTGATACTCG; antisense; DNA, all phosphorothioate, methylation of C not given here) [ISIS 10645]
c-fos mRNA % CONTROL (c-fos mRNA): 56 % CONTROL

GTG-TCT-CGC-CGG-GCA-TCT-CG (dG*dT*dG*dT*dC*dT*dC*dG*dC*dC*dG*dG*dG*dC*dA*dT*dC*dT*dC*dG; antisense) [ISIS 10580]
c-jun mRNA % CONTROL (c-jun mRNA): 19 % CONTROL
inhibition of c-jun mRNA expression (c-jun mRNA): 81%

GCT-GTG-GGC-CTC-AAG-GAC-TT (GCTGTGGGCCTCAAGGACTT; antisense; DNA, all phosphorothioate, methylation of C not given here) [ISIS 11184]
effect on c-fos mRNA levels during TPA induction (in words) (c-fos mRNA): no detectable effect
c-fos (mRNA level, specificity experiment) (c-fos mRNA): 84
c-jun (mRNA level, specificity experiment) (c-jun mRNA): 91
c-Fos (protein level) (c-Fos protein): 97
